Tests used:
[1] = tested on: HT-29; test: Cytotoxicity against human HT-29 cells after 72 hrs by MTT assay; conditions: HT-29, 72 h
[2] = Cytotoxicity against human U87MG cells after 72 hrs by MTT assay; type: functional, cell-based, U-87MG ATCC; conditions: U-87 MG
[3] = Cytotoxicity against human H460 cells after 72 hrs by MTT assay; conditions: NCI-H460, 72 h
[4] = tested on: MKN-45; test: Cytotoxicity against human MKN45 cells after 72 hrs by MTT assay; conditions: MKN-45, 72 h
[5] = tested on: SMMC-7721; test: Cytotoxicity against human SMMC7721 cells after 72 hrs by MTT assay; conditions: SMMC-7721, 72 h

COc1cc2c(Oc3ccc(NC(=O)c4cc(-c5ccc(Cl)cc5Cl)nc5ccc(F)cc45)cc3F)ccnc2cc1OCCCN1CCCCC1
IC50 [1]: 530 nM
IC50 [2]: 1040 nM
IC50 [3]: 310 nM
IC50 [4]: 250 nM

COc1cc2c(Oc3ccc(NC(=O)c4cc(-c5ccc(Cl)c(Cl)c5)nc5ccccc45)cc3F)ccnc2cc1OCCCN1CCCCC1
IC50 [1]: 1210 nM
IC50 [3]: 820 nM
IC50 [4]: 730 nM
IC50 [5]: 770 nM

COc1cccc(-c2cc(C(=O)Nc3ccc(Oc4ccnc5cc(OCCCN6CCCCC6)c(OC)cc45)c(F)c3)c3ccccc3n2)c1
IC50 [1]: 1740 nM
IC50 [3]: 210 nM
IC50 [4]: 360 nM
IC50 [5]: 380 nM

COc1cc2c(Oc3ccc(NC(=O)c4cc(-c5ccccc5)nc5ccccc45)cc3F)ccnc2cc1OCCCN1CCC(C)CC1
IC50 [1]: 120 nM
IC50 [2]: 920 nM
IC50 [3]: 68 nM
IC50 [4]: 19 nM
IC50 [5]: 160 nM

COc1cc2c(Oc3ccc(NC(=O)c4cc(-c5ccc(C)cc5)nc5ccc(F)cc45)cc3F)ccnc2cc1OCCCN1CCC(C)CC1
IC50 [1]: 420 nM
IC50 [2]: 2000 nM
IC50 [3]: 480 nM
IC50 [4]: 260 nM

COc1cc2c(Oc3ccc(NC(=O)c4cc(-c5cccc(Cl)c5)nc5ccc(F)cc45)cc3F)ccnc2cc1OCCCN1CCOCC1
IC50 [1]: 1200 nM
IC50 [2]: 1060 nM
IC50 [3]: 68 nM
IC50 [4]: 60 nM

COc1cc2c(Oc3ccc(NC(=O)c4cc(-c5ccc(C)cc5)nc5ccc(F)cc45)cc3F)ccnc2cc1OCCCN1CCOCC1
IC50 [1]: 390 nM
IC50 [2]: 820 nM
IC50 [3]: 440 nM
IC50 [4]: 320 nM

COc1cccc(-c2cc(C(=O)Nc3ccc(Oc4ccnc5cc(OCCCN6CCCC6)c(OC)cc45)c(F)c3)c3ccccc3n2)c1
IC50 [1]: 1020 nM
IC50 [3]: 290 nM
IC50 [4]: 430 nM
IC50 [5]: 790 nM

COc1cccc(-c2cc(C(=O)Nc3ccc(Oc4ccnc5cc(OCCCN6CCOCC6)c(OC)cc45)c(F)c3)c3ccccc3n2)c1
IC50 [1]: 3050 nM
IC50 [3]: 560 nM
IC50 [4]: 110 nM
IC50 [5]: 1130 nM

COc1cc2c(Oc3ccc(NC(=O)c4cc(-c5ccccc5)nc5ccccc45)cc3F)ccnc2cc1OCCCN1CCCCC1
IC50 [1]: 530 nM
IC50 [2]: 1490 nM
IC50 [3]: 110 nM
IC50 [4]: 15 nM
IC50 [5]: 290 nM

COc1ccc(-c2cc(C(=O)Nc3ccc(Oc4ccnc5cc(OCCCN6CCCC6)c(OC)cc45)c(F)c3)c3cc(F)ccc3n2)cc1
IC50 [1]: 610 nM
IC50 [2]: 930 nM
IC50 [3]: 250 nM
IC50 [4]: 170 nM

COc1cc2c(Oc3ccc(NC(=O)c4cc(-c5cccc(Cl)c5)nc5ccccc45)cc3F)ccnc2cc1OCCCN1CCC(C)CC1
IC50 [1]: 100 nM
IC50 [2]: 580 nM
IC50 [3]: 65 nM
IC50 [4]: 30 nM
IC50 [5]: 80 nM

COc1cc2c(Oc3ccc(NC(=O)c4cc(-c5ccc(C)cc5)nc5ccccc45)cc3F)ccnc2cc1OCCCN1CCC(C)CC1
IC50 [1]: 3150 nM
IC50 [3]: 880 nM
IC50 [4]: 770 nM
IC50 [5]: 1260 nM

COc1cc2c(Oc3ccc(NC(=O)c4cc(-c5ccccc5)nc5ccccc45)cc3F)ccnc2cc1OCCCN1CCOCC1
IC50 [1]: 1520 nM
IC50 [2]: 1140 nM
IC50 [3]: 190 nM
IC50 [4]: 91 nM
IC50 [5]: 330 nM

COc1cc2c(Oc3ccc(NC(=O)c4cc(-c5ccc(F)cc5)nc5ccc(F)cc45)cc3F)ccnc2cc1OCCCN1CCOCC1
IC50 [1]: 250 nM
IC50 [2]: 2150 nM
IC50 [3]: 27 nM
IC50 [4]: 51 nM

COc1ccc(-c2cc(C(=O)Nc3ccc(Oc4ccnc5cc(OCCCN6CCCCC6)c(OC)cc45)c(F)c3)c3cc(F)ccc3n2)cc1
IC50 [1]: 600 nM
IC50 [2]: 1100 nM
IC50 [3]: 240 nM
IC50 [4]: 260 nM

COc1cc2c(Oc3ccc(NC(=O)c4cc(-c5ccc(F)cc5)nc5ccccc45)cc3F)ccnc2cc1OCCCN1CCCCC1
IC50 [1]: 130 nM
IC50 [2]: 980 nM
IC50 [3]: 21 nM
IC50 [4]: 28 nM
IC50 [5]: 74 nM

COc1ccc(-c2cc(C(=O)Nc3ccc(Oc4ccnc5cc(OCCCN6CCCCC6)c(OC)cc45)c(F)c3)c3ccccc3n2)cc1
IC50 [1]: 690 nM
IC50 [2]: 1360 nM
IC50 [3]: 290 nM
IC50 [4]: 210 nM
IC50 [5]: 210 nM

COc1cc2c(Oc3ccc(NC(=O)c4cc(-c5cccc(Cl)c5)nc5ccc(F)cc45)cc3F)ccnc2cc1OCCCN1CCCC1
IC50 [1]: 670 nM
IC50 [2]: 990 nM
IC50 [3]: 72 nM
IC50 [4]: 67 nM

COc1cc2c(Oc3ccc(NC(=O)c4cc(-c5ccc(Cl)c(Cl)c5)nc5ccccc45)cc3F)ccnc2cc1OCCCN1CCCC1
IC50 [1]: 1960 nM
IC50 [3]: 400 nM
IC50 [4]: 170 nM
IC50 [5]: 340 nM

COc1cc2c(Oc3ccc(NC(=O)c4cc(-c5ccccc5)nc5ccc(F)cc45)cc3F)ccnc2cc1OCCCN1CCCCC1
IC50 [1]: 120 nM
IC50 [2]: 690 nM
IC50 [3]: 32 nM
IC50 [4]: 30 nM

COc1cccc(-c2cc(C(=O)Nc3ccc(Oc4ccnc5cc(OCCCN6CCCCC6)c(OC)cc45)c(F)c3)c3cc(F)ccc3n2)c1
IC50 [1]: 2500 nM
IC50 [2]: 1610 nM
IC50 [3]: 1000 nM
IC50 [4]: 690 nM

COc1ccc(-c2cc(C(=O)Nc3ccc(Oc4ccnc5cc(OCCCN6CCOCC6)c(OC)cc45)c(F)c3)c3ccccc3n2)cc1
IC50 [1]: 3190 nM
IC50 [3]: 750 nM
IC50 [4]: 160 nM
IC50 [5]: 1180 nM

COc1cc2c(Oc3ccc(NC(=O)c4cc(-c5cccc(Cl)c5)nc5ccc(F)cc45)cc3F)ccnc2cc1OCCCN1CCC(C)CC1
IC50 [1]: 92 nM
IC50 [2]: 110 nM
IC50 [3]: 60 nM
IC50 [4]: 10 nM

COc1ccc(-c2cc(C(=O)Nc3ccc(Oc4ccnc5cc(OCCCN6CCC(C)CC6)c(OC)cc45)c(F)c3)c3ccccc3n2)cc1
IC50 [1]: 1110 nM
IC50 [3]: 110 nM
IC50 [4]: 320 nM
IC50 [5]: 450 nM

COc1cc2c(Oc3ccc(NC(=O)c4cc(-c5ccc(C)cc5)nc5ccc(F)cc45)cc3F)ccnc2cc1OCCCN1CCCCC1
IC50 [1]: 500 nM
IC50 [2]: 1050 nM
IC50 [3]: 260 nM
IC50 [4]: 170 nM

COc1cc2c(Oc3ccc(NC(=O)c4cc(-c5ccc(C)cc5)nc5ccccc45)cc3F)ccnc2cc1OCCCN1CCOCC1
IC50 [1]: 3560 nM
IC50 [3]: 1100 nM
IC50 [4]: 830 nM
IC50 [5]: 1520 nM

COc1cc2c(Oc3ccc(NC(=O)c4cc(-c5cccc(Cl)c5)nc5ccccc45)cc3F)ccnc2cc1OCCCN1CCCCC1
IC50 [1]: 62 nM
IC50 [2]: 150 nM
IC50 [3]: 11 nM
IC50 [4]: 11 nM
IC50 [5]: 30 nM

COc1cc2c(Oc3ccc(NC(=O)c4cc(-c5cccc(Cl)c5)nc5ccccc45)cc3F)ccnc2cc1OCCCN1CCOCC1
IC50 [1]: 1080 nM
IC50 [2]: 1470 nM
IC50 [3]: 80 nM
IC50 [4]: 35 nM
IC50 [5]: 320 nM

COc1cc2c(Oc3ccc(NC(=O)c4cc(-c5ccc(C)cc5)nc5ccccc45)cc3F)ccnc2cc1OCCCN1CCCC1
IC50 [1]: 850 nM
IC50 [3]: 240 nM
IC50 [4]: 300 nM
IC50 [5]: 520 nM

COc1cc2c(Oc3ccc(NC(=O)c4cc(-c5ccc(C(F)(F)F)cc5)nc5ccccc45)cc3F)ccnc2cc1OCCCN1CCOCC1
IC50 [1]: 230 nM
IC50 [2]: 1010 nM
IC50 [3]: 68 nM
IC50 [4]: 12 nM
IC50 [5]: 100 nM

COc1cc2c(Oc3ccc(NC(=O)c4cc(-c5ccccc5)nc5ccc(F)cc45)cc3F)ccnc2cc1OCCCN1CCCC1
IC50 [1]: 160 nM
IC50 [2]: 960 nM
IC50 [3]: 90 nM
IC50 [4]: 110 nM

COc1cccc(-c2cc(C(=O)Nc3ccc(Oc4ccnc5cc(OCCCN6CCC(C)CC6)c(OC)cc45)c(F)c3)c3cc(F)ccc3n2)c1
IC50 [1]: 1210 nM
IC50 [2]: 840 nM
IC50 [3]: 840 nM
IC50 [4]: 730 nM

— ChEMBL document CHEMBL2390843, “Design, synthesis and antitumour activity of bisquinoline derivatives connected by 4-oxy-3-fluoroaniline moiety” (Eur J Med Chem, 2013)
